Test results: PMC7594079, “Insights into the Function and Evolution of Taste 1 Receptor Gene Family in the Carnivore Fish Gilthead Seabream (Sparus aurata)” (International Journal of Molecular Sciences, 2020)

Tests used:
saT1R1/R1 = conditions: cells transfected with saT1R1 alone (double amount)
Excerpt: (§1) Previous studies have reported that heterodimeric coupling of saT1R complexes may not be the only mode of functional activation since these subunits, especially T1R3, can also couple as homodimers.
(§2) Figure 8 Comparisons of proline Log-dose response curves of activation in heterologous transfections of hetero- and homo-dimeric saT1R combinations of saT1R1/R3 (black dots), saT1R2a/R3 (white dots), saT1R2b/3 (black triangles), saT1R1/R1 (white triangles) and saT1R3/R3 (black squares). Response is measured as RLU mean ± SEM of four independent determinations normalized to the mean response of the same transfections stimulated with reduced assay medium (BME + 1% FBS), expressed as percentage relative to basal levels (BL).
(§3) saT1Rs (saT1R1, saT1R2a, saT1R2b saT1R3) and saGαi1-2 genes were RT-PCR amplified using 5’ and 3’ flanking primers carrying HindIII and XhoI restriction sites, respectively. Gel-purified fragments were cloned into pGEM-T Easy vectors, re-sequenced, digested and subcloned into pcDNA™3 (Invitrogen, Carlsbad, CA, USA). Effective saT1R cloning into pcDNA™3 was further verified by HindIII/XhoI digestion. […]

saT1R3/R3 = conditions: cells transfected with saT1R3 alone (double amount)
Excerpt: as §1, §2, §3

O=C(O)[C@@H]1CCCN1 [Pro, Proline] was tested, and the “response to Pro stimulation” value (saT1R1/R1) was “did not respond” and the “response to Pro stimulation” value (saT1R3/R3) was “did not respond”.
